Reference: PMC3112094, “Pro-apoptotic activity of α-bisabolol in preclinical models of primary human acute leukemia cells” (Journal of Translational Medicine, 2011)

How the values were obtained:
Format in all cases: cell-based, human
AML cells = assay: 24-hour LDH release cytotoxicity assay, ex vivo blasts; conditions: for cytotoxicity: 24 hours, mean ± SD
Description: (§1) Viable leukemic cells were purified by conventional methods from freshly heparinized peripheral blood with a circulating blast count ≥30,000/mL, or from full-substituted bone marrow that was frozen in liquid nitrogen at diagnosis. In all cases frozen cell samples contained >95% blasts. Cell viability after thawing was always >90%, as assessed by trypan blue staining.
(§2) Cells derived from patients or normal donors were exposed for 24 hours to 20, 40, 80, and 160 μM α-bisabolol dissolved in ethanol (1:8 in order to minimize drug volumes), and when appropriate to 3 μM imatinib mesylate (Novartis, Basel, CH), representative of the in vivo active concentration. All cytotoxicity tests were performed in triplicate.
(§3) A lactate dehydrogenase (LDH) release assay was conducted as follows. Thawed cells were resuspended in RPMI-1640 (Lonza, Basel, CH) supplemented with 10% heat-inactivated fetal bovine serum (FBS, Lonza), 50 U/mL penicillin and 50 μg/mL streptomycin (complete medium, CM), seeded at a density of 2 × 10^6 cell/mL and incubated at 37°C in 5% CO2. After 24 hours, the cells were treated with α-bisabolol (or ethanol as a vehicle control) as specified above. Cytotoxicity was determined using the Cytotoxicity Detection Kit^PLUS according to the manufacturer's recommendations (Roche, Mannheim, DE). LDH leakage was measured as the ratio of treatment-induced LDH to spontaneous LDH release. α-bisabolol and imatinib mesylate data were reported as the percent cytotoxicity for treated compared to untreated cells and plotted as dose-response curves over 24 hours. The half maximal inhibitory concentration (IC50) was determined when appropriate.
(§4) Student's t-test for means, chi-squared tests, Mann-Whitney U test and Kruskall-Wallis analysis of variance by ranks were considered significant for p values < 0.05.

primary Ph^-B-ALL cells = assay: as above; conditions: for cytotoxicity: 24 hours
Description: as §1, §2, §3, §4

T lymphocytes = assay: Cytotoxicity in normal peripheral blood cells, TruCOUNT flow cytometry
Description: Viable peripheral blood leukocytes and bone marrow cells from - 4 - control donors were treated and used as specified above for leukemic cells.
as §2
The absolute counts of normal leukocytes sub-populations were measured with TruCOUNT tubes (Becton Dickinson, San Jose, CA) by polychromatic flow cytometry according to the manufacturer's instructions with minor modifications. Peripheral blood and bone marrow cells were cultured with α-bisabolol for 24, 48, 72, 96 and 120 hours. At the end of the culture, 200 μL of sample, a mixture of antibodies (CD45 APC-H7, CD3 PE-Cy7, CD19 PE, CD14 APC for peripheral blood and CD45 APC-H7, CD34 PE, CD33 PE-Cy7 for bone marrow) and 7-amino-actinomycin D (all reagents from Becton Dickinson) for dead cells exclusion were added to the TruCOUNT tubes. After a 15-minute incubation at room temperature, 1 mL lysing reagent (Biosource, Nivelles, BE) was added for 10 minutes. A total of 40,000 beads were acquired on a FACSCanto cytometer (Becton Dickinson). […]

BID = assay: Western blot for BID cleavage and mitochondrial translocation
Description: Cells were homogenized at 4°C in 50 mM Tris-HCl (pH 8) containing 0.1% Nonidet-P40 (NP-40), 200 mM KCl, 2 mM MgCl2, 50 μM ZnCl2, 2 mM DTT, and protease inhibitors [1 mM phenylmethylsulfonyl fluoride (PMSF), 1 mg/mL leupeptin, and 1 mg/mL antipain]. Aliquots of the homogenates (40 μg total protein/lane) were loaded on SDS-polyacrylamide gels at the appropriate concentrations. Electrophoresis was performed at 100 V with a running buffer containing 0.25 M Tris-HCl (pH 8.3), 1.92 M glycine, and 1% SDS. The resolved proteins were electroblotted onto a nitrocellulose membrane using the iBlot™ system (Invitrogen, Carlsbad, CA). Membranes were then incubated with a mouse monoclonal IgG antibody to poly(ADP-ribose) polymerase (PARP) (Zymed, South San Francisco, CA), with a rabbit polyclonal IgG antibody to BID (Cell Signaling Technology, Danvers, MA) or with a rabbit polyclonal IgG antibody to α-tubulin (Cell Signaling Technology). The membranes were then washed and incubated with an anti-mouse or anti-rabbit IgG peroxidase-conjugated antibody (Cell Signaling Technology). The blots were washed again and then incubated with enhanced chemiluminescent detection reagents (Immun-Star™ WesternC™ Kit, Bio-Rad, Hercules, CA) according to the manufacturer's instructions. Proteins were detected using the ChemiDoc XRS Imaging System (Bio-Rad). […]

CC(C)=CCC[C@](C)(O)[C@@H]1CC=C(C)CC1 [α-bisabolol]
IC50 (AML cells; Homo sapiens, n 14, 24-hour): 54 ± 8 µM | cytotoxicity (AML cells; n 14, 20 μM α-bisabolol): 10 ± 9% | cytotoxicity (AML cells; n 14, 40 μM α-bisabolol): 32 ± 21% | cytotoxicity (AML cells; n 14, 80 μM α-bisabolol): 72 ± 11% | cytotoxicity (AML cells; n 14, 160 μM α-bisabolol): 96 ± 4% | IC50 (primary Ph^-B-ALL cells; Homo sapiens, n 14, 24-hour): 33 ± 15 µM | cytotoxicity (primary Ph^-B-ALL cells; n 14, 20 μM α-bisabolol, mean ± SD): 37 ± 36% | cytotoxicity (primary Ph^-B-ALL cells; n 14, 40 μM α-bisabolol, mean ± SD): 55 ± 37% | cytotoxicity (primary Ph^-B-ALL cells; n 14, 80 μM α-bisabolol, mean ± SD): 87 ± 12% | cytotoxicity (primary Ph^-B-ALL cells; n 14, 160 μM α-bisabolol): 100% | IC50 (T lymphocytes; Homo sapiens, T-lymphocyte, 24 h, normal peripheral blood T lymphocytes): 59 ± 7 µM | sensitivity to α-bisabolol (T lymphocytes; T lymphocytes, 40 μM α-bisabolol over 120 hours): only marginally sensitive | cleavage of BID to truncated BID (BID; 24-hour α-bisabolol, any concentration, PBMCs and blasts): did not induced the cleavage of BID | BID translocation to mitochondrial fraction (BID; different times and solubilized doses of α-bisabolol): No BID translocation was detected
